Test results reported in the supplement of paper PMC10307832.

What was measured:
Assay in all cases: relative viability (nuclei count vs DMSO), 5 days (fraction); higher = more cells survive
[1] = compound: CCOC1=CC=CC=C1N=NC2=C(NN(C2=O)C3=NC(=CS3)C4=CC=CC=C4)C [BAM7] + COc1cccc2cc(-c3nc([C@H]4CC[C@H](C(=O)O)CC4)n4ncnc(N)c34)[nH]c12 [OSI-027] (partner 0.5 µM)
Summary of the method: (§1)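 The day after seeding in 1536-well plates, lung cancer cell lines were treated by pin tool with a single drug, or with a fixed anchor-drug dose together with five library-drug doses (not always all listed) in √10 steps. After 5 days, a combined fix-and-stain solution (final 0.05% Triton X-100, 1% formaldehyde, 1 ug/ml Hoechst) was added. Nuclei counted on 4× images gave relative viability as treated counts over vehicle counts, reported as the median of duplicate plates.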

[2] = compound: CCOC1=CC=CC=C1N=NC2=C(NN(C2=O)C3=NC(=CS3)C4=CC=CC=C4)C [BAM7] + N=C(N)NC(=N)NCCc1ccccc1 [Phenformin] (partner 250 µM)
Summary of the method: as §1

[3] = compound: CCn1c(-c2nonc2N)nc2c(C#CC(C)(C)O)ncc(OC[C@H]3CCCNC3)c21 + CCNC(=O)c1noc(-c2cc(C(C)C)c(O)cc2O)c1-c1ccc(CN2CCOCC2)cc1 [Luminespib] (partner 0.01 µM)
Summary of the method: as §1

[4] = compound: CCOC1=CC=CC=C1N=NC2=C(NN(C2=O)C3=NC(=CS3)C4=CC=CC=C4)C [BAM7] + C[C@]1(O)C[C@@H](c2nc(-c3ccc4ccc(-c5ccccc5)nc4c3)c3c(N)nccn32)C1 [Linsitinib] (partner 1 µM)
Summary of the method: as §1

Row | Cell Line | relative viability ([1]; first compound 0.5 µM) | relative viability ([1]; first compound 5 µM) | relative viability ([1]; first compound 15.81 µM) | relative viability ([1]; first compound 50 µM) | relative viability ([2]; first compound 0.5 µM) | relative viability ([2]; first compound 5 µM) | relative viability ([2]; first compound 15.81 µM) | relative viability ([2]; first compound 50 µM) | relative viability ([3]; first compound 0.01 µM) | relative viability ([3]; first compound 0.03162 µM) | relative viability ([3]; first compound 0.1 µM) | relative viability ([3]; first compound 0.3162 µM) | relative viability ([3]; first compound 1 µM) | relative viability ([4]; first compound 0.5 µM) | relative viability ([4]; first compound 5 µM) | relative viability ([4]; first compound 15.81 µM) | relative viability ([4]; first compound 50 µM)
1 | SW 900 | 0.194 | 0.539 | 0.545 | 0.609 | 0.548 | 0.544 | 0.576 | 0.759 | 0.189 | 0.185 | 0.18 | 0.16 | 0.162 |  |  |  | 
2 | NCI-H838 | 0.365 | 0.435 | 0.405 | 0.379 | 0.544 | 0.572 | 0.597 | 0.648 | 0.309 | 0.308 | 0.296 | 0.227 | 0.304 | 1.12 | 1.06 | 0.982 | 0.994
3 | NCI-H1648 | 0.275 | 0.282 |  | 0.283 |  |  |  |  |  |  |  |  |  |  |  |  | 
4 | A549 |  |  |  |  | 0.161 | 0.213 | 0.219 | 0.216 |  |  |  |  |  | 0.658 | 0.617 | 0.57 | 0.559
5 | A-427 | 0.58 | 0.466 | 0.491 | 0.49 | 0.401 | 0.323 | 0.288 | 0.35 | 0.944 | 1.03 | 0.77 | 0.867 | 0.946 | 1.14 | 1.1 | 1.05 | 1.14
6 | NCI-H1792 | 0.694 | 0.71 | 0.553 | 0.624 | 0.333 | 0.219 | 0.274 | 0.369 | 0.593 |  | 0.566 | 0.416 | 0.47 | 0.64 | 0.54 | 0.542 | 0.628
7 | LCLC-97TM1 | 0.699 | 0.469 | 0.505 | 0.677 | 0.45 | 0.443 | 0.43 | 0.473 | 0.707 | 0.914 | 0.609 | 0.658 | 0.741 | 0.174 | 0.184 | 0.176 | 0.179
8 | NCI-H1703 |  |  |  |  |  |  |  |  |  |  |  |  |  | 0.791 | 0.856 | 0.75 | 0.791
9 | LCLC-103H | 0.366 | 0.505 | 0.504 | 0.537 | 0.334 | 0.354 | 0.336 | 0.327 | 0.936 | 0.912 | 0.94 | 0.735 | 0.863 | 1.06 | 1.22 | 1.15 | 0.933
10 | PC-3 [JPC-3] | 0.668 | 0.698 | 0.698 | 0.668 | 0.447 | 0.491 | 0.458 | 0.439 | 0.734 | 0.726 | 0.709 | 0.67 | 0.591 | 0.905 | 0.966 | 0.868 | 0.835
11 | BEN | 0.306 | 0.299 | 0.314 | 0.326 | 0.257 | 0.248 | 0.286 | 0.294 | 0.235 | 0.337 | 0.332 | 0.571 | 0.452 | 0.914 | 0.97 | 0.876 | 0.898
12 | NCI-H1666 | 0.899 | 0.786 | 0.875 | 0.929 | 0.592 | 0.588 | 0.588 | 0.563 | 0.948 | 0.933 | 1.05 | 0.959 | 1.04 | 0.835 | 0.867 | 0.734 | 0.854
